Results on eight compounds are retold here after patent US5821231A, “CS-1 peptidomimetics, compositions and methods of using same” (Cytel Corporation, priority 1995, dated 1998).

Square brackets hold non-standard residues; d marks the D form. Peptide text beside a SMILES is read from it. * marks the point of attachment. NMeF = CN[C@@H](Cc1ccccc1)C(=O)O; NMeD = CN[C@@H](CC(=O)O)C(=O)O; Morpholide = C1CN(*)CCO1; PhAc = O=C(Cc1ccccc1)*

Assay [1] relates to New Zealand white rabbits. Put plainly: Treatment of asthmatic rabbits (house dust mite antigen challenge, crossover). It is filed as in vivo, rabbit. As to conditions: 100 mg/kg nebulizer. On the procedure:
Six New Zealand white rabbits were immunized with house dust mite antigen from birth through four months of age. Upon immunization, three rabbits received a single nebulizer administration of the inhibitor compound, Compound ID No. 1051.01, N-phenylacetyl-Leu-Asp-Phe-morpholinamide in aqueous 50 percent ethanol as diluent in an amount of 100 mg/kg, and the other three received diluent alone. All of the rabbits were challenged with house dust mite antigen about 15-30 minutes after administration of the compound, with those animals not receiving compound serving as controls.
Once immunized and challenged, the inflammatory state subsides to a basal level within about three weeks. The three animals used as controls were thereafter used as subjects for receipt of an inhibitor compound, and the three rabbits that initially received the compound can serve as controls.
Such a crossover study was done here. […]
Initial pulmonary function, measured by dynamic compliance (Cdyn) and lung resistance (RL), and bronchoalveolar lavage (BAL) to obtain an effector cell count, here eosinophils, were conducted prior to administration of the compound or diluent for both portions of this crossover study. […]

The subject of assay [2] is BALB/c mice. Kind of assay: Adoptive transfer delayed type hypersensitivity in mice (oxazolone). To be noted: expanded study; versus vehicle alone. It is filed as in vivo, mouse. As for the experimental part:
An adoptive transfer delayed-type hypersensitivity murine model has been developed using splenic T cells primed to oxazolone. This model is described in Elices et al., Clin. Exp. Rheum., 11(Suppl. 8):577-580 (1993), whose procedures were followed here.
Thus, BALB/c mice were shaved on the belly and painted (50 μl on the belly and 5 μl on each paw) with three percent oxazolone in acetone/olive oil (4:1) at days zero and 1. At day 5, the mice were sacrificed, their spleens removed, and splenic T cells were obtained via nylon wool columns.
Normal saline or saline containing 25×10^6 /animal of the oxazolone-immune T cells were separately injected into naive mice. The mice were then challenged by painting 10 μl of 2 percent oxazolone onto one ear each. All procedures were carried out under sterile conditions and in endotoxin-free buffers.
Prior to challenge or saline injection, the mice were implanted with pumps that subcutaneously administered normal saline, normal saline containing the compound, Compound ID No. 896.52, N-phenylacetyl-Leu-Asp-Phe-D-Pro-NH2, or normal saline containing a compound with a scrambled sequence continually at 6 mg/kg/day for a 24-hour time period. The swelling diameter at the site of challenge or saline injection was measured with a microcaliper 24 hours thereafter.
An expanded study was carried out as described above except that a scrambled compound control was not used as a control for further inhibitor compounds of Table 1 with larger groups of mice. Statistical analyses were carried out versus injection of vehicle alone.

In assay [3] the target is T1, VLA-4 (Homo sapiens, UniProt P05556+P13612). Kind of assay: In vitro binding assay: 51Cr-labeled Jurkat cells to solid phase-bound CS-1 compound (SEQ ID NO:1). It is filed as cell-based. Set-up: inflammatory cells that contain the VLA-4 receptor [Jurkat cells; host or cells: Jurkat cells (human T lymphoblastic line). As to conditions: for Relative Potency: binding inhibition potency (IC50) relative to standard compound of SEQ ID NO:3 = 1, about one-tenth or less assigned zero. On the procedure:
Binding inhibition is measured here as a concentration of compound that inhibits one-half the binding between a standard number of Jurkat cells and a standard amount of CS-1 compound bound to the surface of a microtiter plate well. Those concentrations are conveniently expressed as IC50 values, smaller numbers indicating a lower concentration required to inhibit 50 percent binding and therefore greater potency. Further specifics of this assay are provided hereinafter.
Jurkat cells (ATCC TIB 152), a human T lymphoblastic line, labeled with ^51 chromium were used to assay in vitro binding inhibition provided by various compounds discussed herein.
The plates were prepared as follows: The 25-mer CS-1 compound (SEQ ID NO:1) dissolved at 0.5-1 μg/ml in a buffer of 0.1M NaHCO3 at pH 9.5 that also contained 10 μg/ml of bovine serum albumin (BSA) or a conjugate of the CS-1 compound linked to ovalbumin (CS-1-OVA) dissolved at 1-2.5 μg/ml in the same buffer was used as the substrate. Each well of the microtiter plates was coated with 50 μl of substrate or buffer alone for controls. The wells were permitted to dry out completely and were then rinsed twice with PBS at pH 7.4. Non-specific binding sites of each well were then blocked using 200 μl per well of RPMI/1 percent BSA for two hours at room temperature.
Jurkat cells (3-5×10^6 cells) were placed into a 15 ml Falcon™ round-bottom tube with a cap. The tube was centrifuged, and the extra medium was then removed.
Two hundred microliters of a ^51 Cr labeling solution were added to the centrifuged cells and maintained in contact with the cells for 90-120 minutes in a warm room. […] Longer contact times provide a greater amount of labeling but lower cell viability.
The labeled cells are washed with (i) complete medium, (ii) 1 mM EDTA/PBS and then (iii) RPM1/1 percent BSA free of serum components. The cells are centrifuged after each washing. The cells are finally resuspended in serum-free RPMI/1 percent BSA at a concentration of 1×10^6 viable cells/ml, which provides a concentration that is diluted by one-half in the assay.
Inhibitor compounds are prepared as stock solutions at 20 mg/ml in DMSO in 1.5 ml cryogenic screwcap vials, and were stored at -70° C. Using Flow™ round-bottom or V-bottom microtiter plates, the inhibitor compounds were prepared at twice the assay concentration in RPMI/1 percent BSA at 60 μl/well.
Four initial dilutions were typically used.
The ^51 Cr-labeled cells ([…] at 60 μl/well) were then admixed with the diluted compound solutions. The admixtures were maintained at room temperature (about 22° C.) for 30 minutes.
One hundred microliters of each inhibitor compound/cell admixture were transferred to the substrate-coated wells. This was done in triplicate for each dilution. The resulting plates were incubated for 30 minutes at 37° C. and then washed gently three times with RPMI/1 percent BSA at 200 μl/well. Binding was observed microscopically, particularly after the second wash.
The bound cells were then lysed by the addition of a 0.5 percent solution of sodium dodecylsulfate in water at 100 μl/well. The resulting solutions were then processed for counting and calculation of IC50 values following usual procedures.
The data of Table 1 are normalized to the binding of SEQ ID NO: 3. […] Multiple assays for the same compound were averaged.

The test system of assay [4] is Jurkat T cell line. Kind of assay: Jurkat cell binding to frozen human rheumatoid arthritis synovial sections. As to conditions: 10-mer at 500 μg/ml. It is filed as cell-based. On the procedure:
Binding studies were carried out using the Jurkat T cell line and frozen RA synovial sections. […] Stimulated MOLT-4 cells behaved similarly.
The absolute value of that IC50 value is about 0.5 μmolar.

Assay [5] concerns immune T cells. As to conditions: about 50 μg/ml admixed with immune T cells; Ferguson et al.; cited from earlier work.
Assay [6] addresses T1, VLA-4. As to conditions: cited from earlier work.

T1 sequence (P13612 34-1032): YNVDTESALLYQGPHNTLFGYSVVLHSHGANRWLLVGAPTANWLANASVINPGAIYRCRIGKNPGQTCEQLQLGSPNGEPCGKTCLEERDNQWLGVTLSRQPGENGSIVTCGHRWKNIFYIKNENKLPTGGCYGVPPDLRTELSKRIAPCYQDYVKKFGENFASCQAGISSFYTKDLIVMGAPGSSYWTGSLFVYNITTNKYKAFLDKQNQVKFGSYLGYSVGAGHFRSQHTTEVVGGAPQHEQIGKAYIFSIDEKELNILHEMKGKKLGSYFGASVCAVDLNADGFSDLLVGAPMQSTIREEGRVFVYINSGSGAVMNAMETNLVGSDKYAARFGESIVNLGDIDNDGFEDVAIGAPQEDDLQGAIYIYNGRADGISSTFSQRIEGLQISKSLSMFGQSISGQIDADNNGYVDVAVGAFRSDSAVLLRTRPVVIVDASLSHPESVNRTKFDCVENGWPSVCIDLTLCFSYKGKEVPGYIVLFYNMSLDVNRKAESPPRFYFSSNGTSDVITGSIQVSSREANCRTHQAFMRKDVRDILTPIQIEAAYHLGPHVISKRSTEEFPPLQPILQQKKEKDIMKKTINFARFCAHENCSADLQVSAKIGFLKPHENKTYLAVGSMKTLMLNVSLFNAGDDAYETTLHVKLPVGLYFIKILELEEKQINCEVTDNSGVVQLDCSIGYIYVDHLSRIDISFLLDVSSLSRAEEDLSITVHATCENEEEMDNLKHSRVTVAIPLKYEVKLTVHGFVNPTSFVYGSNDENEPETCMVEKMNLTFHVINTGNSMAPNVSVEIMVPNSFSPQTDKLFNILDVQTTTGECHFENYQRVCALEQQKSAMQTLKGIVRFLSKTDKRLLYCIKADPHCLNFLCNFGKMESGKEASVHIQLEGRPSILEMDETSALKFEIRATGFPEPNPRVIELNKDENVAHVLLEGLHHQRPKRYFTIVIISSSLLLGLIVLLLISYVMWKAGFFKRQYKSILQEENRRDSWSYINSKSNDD
T1 sequence (P05556 21-798): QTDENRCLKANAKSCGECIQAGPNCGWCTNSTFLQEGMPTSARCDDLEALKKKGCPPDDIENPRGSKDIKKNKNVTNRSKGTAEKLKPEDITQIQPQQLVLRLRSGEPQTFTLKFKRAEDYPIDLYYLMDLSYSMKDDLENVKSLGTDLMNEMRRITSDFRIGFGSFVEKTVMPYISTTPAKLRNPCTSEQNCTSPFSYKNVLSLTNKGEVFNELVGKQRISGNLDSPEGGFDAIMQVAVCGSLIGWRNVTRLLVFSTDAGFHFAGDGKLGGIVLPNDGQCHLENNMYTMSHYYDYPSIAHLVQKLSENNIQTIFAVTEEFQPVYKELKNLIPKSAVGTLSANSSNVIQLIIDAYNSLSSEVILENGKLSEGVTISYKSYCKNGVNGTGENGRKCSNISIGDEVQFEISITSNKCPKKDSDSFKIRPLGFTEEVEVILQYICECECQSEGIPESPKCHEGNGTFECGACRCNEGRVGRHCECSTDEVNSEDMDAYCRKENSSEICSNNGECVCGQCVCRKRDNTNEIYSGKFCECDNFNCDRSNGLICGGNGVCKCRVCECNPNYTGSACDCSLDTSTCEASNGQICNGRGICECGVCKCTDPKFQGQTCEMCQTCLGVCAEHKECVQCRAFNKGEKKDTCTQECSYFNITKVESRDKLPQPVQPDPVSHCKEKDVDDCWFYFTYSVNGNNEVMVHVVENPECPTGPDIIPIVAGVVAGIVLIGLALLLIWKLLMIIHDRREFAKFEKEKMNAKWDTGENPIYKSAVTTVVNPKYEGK

As to `CC(C)C[C@H](NC(=O)Cc1ccccc1)C(=O)N[C@@H](CC(=O)O)C(=O)N[C@@H](Cc1ccccc1)C(=O)N1CCOCC1` [1051.01, N-phenylacetyl-Leu-Asp-Phe-morpholinamide] (PhAc-Leu-Asp-Phe-Morpholide), in assay [1] (FIG. 4A), the “Cdyn value over six hours after challenge” value is “stayed at about the initial value”. The “RL values over six hours after challenge” value in assay [1] (FIG. 4B) is “remained between the initial value and about 200% of that value”. As for `CC(C)C[C@H](NC(=O)Cc1ccccc1)C(=O)N[C@@H](CC(=O)O)C(=O)N[C@@H](Cc1ccccc1)C(=O)N1CCC(O)CC1` [1070.02, .phi.Ac--Leu--Asp--Phe-4-hydroxpiperidinamide], in assay [2], the “Percent Inhibition (post-challenge swelling)” value was 29%.

As for `CC(C)C[C@H](NC(=O)Cc1ccccc1)C(=O)N[C@@H](CC(=O)O)C(=O)N[C@@H](Cc1ccccc1)C(=O)N1CCN(CC(=O)O)CC1` [1111.06, .phi.Ac--Leu--Asp--Phe-4-N(carboxymethyl)piperazinamide], the “Percent Inhibition (post-challenge swelling)” value in assay [2] is on record as 30%. In addition, the “Relative Potency” value in assay [3] stood at 2600.

As for `CCOC(=O)C[C@H](NC(=O)[C@H](CC(C)C)NC(=O)Cc1ccccc1)C(=O)N[C@@H](Cc1ccccc1)C(=O)N1CCC[C@@H]1C(N)=O` [1190.01] (PhAc-LD(OEt)F[dP]-NH2), in assay [3] (before the prodrug compound is enzymatically converted to an active form, relative to SEQ ID NO:3 = 1), the “Relative Potency (prodrug compound)” value was found to be 0. Take `CC(C)C[C@H](NC(=O)Cc1ccccc1)C(=O)N[C@@H](CC(=O)O)C(=O)N(C)[C@@H](Cc1ccccc1)C(=O)N1CCC[C@@H]1C(N)=O` [1190.05] (PhAc-LD[NMeF][dP]-NH2): the “Relative Potency” value in assay [3] was found to be 0. The same measure, in the same setting: next, `CC(C)C[C@H](NC(=O)Cc1ccccc1)C(=O)N(C)[C@@H](CC(=O)O)C(=O)N[C@@H](Cc1ccccc1)C(=O)N1CCC[C@@H]1C(N)=O` [1190.06] (PhAc-L[NMeD]F[dP]-NH2): 0.

Turning to `CC[C@H](C)[C@H](NC(=O)[C@H](CCC(=O)O)NC(=O)[C@@H]1CCCN1C(=O)CN)C(=O)N[C@@H](CC(C)C)C(=O)N[C@@H](CC(=O)O)C(=O)N[C@H](C(=O)N1CCC[C@H]1C(=O)N[C@@H](CO)C(=O)N[C@H](C(=O)O)[C@@H](C)O)C(C)C` [SEQ ID NO:3, GPEILDVPST] (H-GPEILDVPST-OH), the “inhibition of Jurkat cell adhesion to RA synovial sections” value in assay [4] is “could be inhibited”. Besides, the “abrogation of a transferred immune response” value in assay [5] was “could abrogate a transferred immune response”. Regarding Leu-Asp-Val [LDV], the “affinity of VLA-4 relative to native CS-1 25-mer” value in assay [6] is “at least two orders of magnitude lower affinity”.
